Laboratory results from ChEMBL document CHEMBL1201862, “PubChem BioAssay data set” (2004).
Several values for one entry are separate records, joined by “and”; a condition that tells them apart may be missing. Identical values can stand only once.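 All cell lines were grown in 96-well plates and treated with compound for 48 hours. The concentration for 50% growth inhibition is given as GI50.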 Activity calls are given as the source filed them. No stated cut-off is given here; in the data, active = GI50 up to about 1.1 µM and inactive = higher. Residues, ends and D or L forms follow the SMILES beside them. *: point of attachment. Boc = CC(C)(C)OC(=O)*

Assays:
Assay in all cases: DTP human tumour cell line panel, 48 h
[1] = test system: MDA-N
[2] = test system: TK-10
[3] = test system: BT-549
[4] = test system: NCI-H23
[5] = test system: SN12C
[6] = test system: UACC-257
[7] = test system: KM12
[8] = test system: HOP-62
[9] = test system: HCT-116
[10] = test system: OVCAR-8
[11] = test system: T47D
[12] = test system: IGROV-1
[13] = test system: SF-268
[14] = test system: UACC-62
[15] = test system: PC-3
[16] = test system: MOLT-4
[17] = test system: SK-MEL-5
[18] = test system: SK-MEL-2
[19] = test system: CAKI-1
[20] = test system: Malme-3M

Compound | GI50 [1] | GI50 [2] | GI50 [3] | GI50 [4] | GI50 [5] | GI50 [6] | GI50 [7] | GI50 [8] | GI50 [9] | GI50 [10] | GI50 [11] | GI50 [12] | GI50 [13] | GI50 [14] | GI50 [15] | GI50 [16] | GI50 [17] | GI50 [18] | GI50 [19] | GI50 [20]
COc1ccc(N2C(=O)C3c4[nH]c5cccc(Cl)c5c4C4CCC(C(C)(C)C)CC4C3C2=O)cc1 (configuration not stated) | > 100 µM (inactive) | > 100 µM (inactive) | > 100 µM (inactive) | > 100 µM (inactive) | > 100 µM (inactive) | > 100 µM (inactive) | > 100 µM (inactive) | 16.3 µM (inactive) | > 100 µM (inactive) | 84.3 µM (inactive) | > 100 µM (inactive) | > 100 µM (inactive) | 50.6 µM (inactive) | > 100 µM (inactive) | > 100 µM (inactive) | > 100 µM (inactive) | > 100 µM (inactive) | 94.6 µM (inactive) | > 100 µM (inactive) | > 100 µM (inactive)
O=C1CSC(c2ccccc2[N+](=O)[O-])N1c1ccc(-c2ccc(-n3c(-c4ccccc4)nc4ccccc4c3=O)cc2)cc1 (configuration not stated) | > 100 µM (inactive) | > 100 µM (inactive) | > 100 µM (inactive) | > 10 µM (inactive) | > 100 µM (inactive) | > 100 µM (inactive) | 80 µM (inactive) | > 100 µM (inactive) | 82.6 µM (inactive) | > 100 µM (inactive) | 29.1 µM (inactive) | 57.1 µM (inactive) | 45.8 µM (inactive) | 36.6 µM (inactive) | > 100 µM (inactive) | 43.2 µM (inactive) | 42 µM (inactive) | > 100 µM (inactive) | > 100 µM (inactive) | > 100 µM (inactive)
CCOC(=O)/C(C#N)=C1\c2c([nH]c(=S)[nH]c2=O)Oc2ccc3ccccc3c21 | 51.2 µM (inactive) | 39.9 µM (inactive) | > 100 µM (inactive) | 88.1 µM (inactive) | 41.1 µM (inactive) | > 100 µM (inactive) | > 100 µM (inactive) | 42.2 µM (inactive) | 67.3 µM (inactive) | 54.7 µM (inactive) | 34.7 µM (inactive) | > 100 µM (inactive) | 24.3 µM (inactive) | 24.4 µM (inactive) | 34 µM (inactive) | 11.2 µM (inactive) | 14 µM (inactive) | 13 µM (inactive) | 75 µM (inactive) | 68.7 µM (inactive)
COC1OC(C(=O)CP(=O)(OC)OC)C(OCc2ccccc2)C(OCc2ccccc2)C1OCc1ccccc1 (configuration not stated) | 16.3 µM (inactive) and 17.1 µM (inactive) | 17.1 µM (inactive) and 18.8 µM (inactive) | 17.9 µM (inactive) and 19.5 µM (inactive) | 15.9 µM (inactive) and 17.5 µM (inactive) | 16.4 µM (inactive) | 16.5 µM (inactive) and 15.7 µM (inactive) | 18.7 µM (inactive) and 18.9 µM (inactive) | 17.2 µM (inactive) and 18 µM (inactive) | 16.6 µM (inactive) and 15.5 µM (inactive) | 19.8 µM (inactive) and 17.9 µM (inactive) | 18 µM (inactive) and 15.5 µM (inactive) | 18.3 µM (inactive) and 18.9 µM (inactive) | 16.9 µM (inactive) and 17.7 µM (inactive) | 13.7 µM (inactive) and 14.8 µM (inactive) | 15.4 µM (inactive) and 14.2 µM (inactive) | 13 µM (inactive) and 20.8 µM (inactive) | 14.8 µM (inactive) and 15 µM (inactive) | 16.5 µM (inactive) and 17.1 µM (inactive) | 16.3 µM (inactive) and 19.6 µM (inactive) | 17.9 µM (inactive) and 19.2 µM (inactive)
CC(=O)c1cc2c(s1)C(=O)c1ccsc1C2=O | 0.0802 µM (active) | 1.97 µM (inactive) | 0.182 µM (active) | 0.167 µM (active) | 0.182 µM (active) | 0.132 µM (active) | 1.61 µM (inactive) | 0.491 µM (active) | 0.292 µM (active) | 0.373 µM (active) | 1.31 µM (inactive) | 1.75 µM (inactive) | 0.301 µM (active) | 0.255 µM (active) | 0.458 µM (active) | 0.438 µM (active) | 0.0559 µM (active) | 0.621 µM (active) | 2.12 µM (inactive) | 0.146 µM (active)
COC(=O)[C@]1(C)CC[C@]2(C)CC[C@]3(C)C4[C@H]5Oc6c(cc7c(c6C)CCC6[C@@]7(C)CC[C@@]7(C)C8[C@](C)(CCC[C@@]8(C)C(=O)OC)CC[C@]67C)O[C@H]5c5c(cc6c(c5C)O[C@@]5(C)C7=CC=C8[C@@](C)(CC[C@@]9(C)[C@@H]%10C[C@](C)(C(=O)OC)CC[C@]%10(C)CC[C@]89C)C7=CC(=O)[C@@]5(O)O6)[C@]4(C)CC[C@@]3(C)C2C1 (some centres not stated) | 1.93 µM (inactive) | 2.6 µM (inactive) | 7.03 µM (inactive) | 8.97 µM (inactive) | 2.35 µM (inactive) | 2.83 µM (inactive) | > 12.5 µM (inactive) | 8.51 µM (inactive) | 2.34 µM (inactive) | 2.63 µM (inactive) | 2.11 µM (inactive) | 2.62 µM (inactive) | 4.5 µM (inactive) | 2.32 µM (inactive) | 4.15 µM (inactive) | 1.39 µM (inactive) | 3.69 µM (inactive) | 3.01 µM (inactive) | 6.22 µM (inactive) | 4.86 µM (inactive)
CCCC[C@H]1CCN2C[C@@H](O)[C@@H](O)[C@H]2[C@@H]1O | > 100 µM (inactive) | > 100 µM (inactive) | > 100 µM (inactive) | > 100 µM (inactive) | > 100 µM (inactive) | > 100 µM (inactive) | > 100 µM (inactive) | – | > 100 µM (inactive) | > 100 µM (inactive) | > 100 µM (inactive) | > 100 µM (inactive) | > 100 µM (inactive) | > 100 µM (inactive) | > 100 µM (inactive) | > 100 µM (inactive) | > 100 µM (inactive) | > 100 µM (inactive) | > 100 µM (inactive) | > 100 µM (inactive)
CO[C@@H]1C[C@H](OC(N)=O)[C@@H]2C=C[C@@H]3/C=C(C)/C=C/[C@@H](C)[C@H]([C@H](C)[C@H](O)[C@@H](C)NC(C)=O)OC(=O)/C=C/C=C(C)\C=C\[C@]3(C)[C@@H]2C1 | < 0.01 µM (active) | – | 2.16 µM (inactive) | 0.522 µM (active) | – | 0.0354 µM (active) | < 0.01 µM (active) | < 0.01 µM (active) | < 0.01 µM (active) | 0.22 µM (active) | < 0.01 µM (active) | < 0.01 µM (active) | 0.767 µM (active) | < 0.01 µM (active) | < 0.01 µM (active) | 0.332 µM (active) | < 0.01 µM (active) | 1.28 µM (inactive) | < 0.01 µM (active) | < 0.01 µM (active)
CC(C)(C)OC(=O)NC(Cc1ccc(O)cc1)C(=O)NC(CCCCN)C(=O)O (stereo not drawn) (Boc-Tyr-Lys-OH; configuration not given here) | 32.6 µM (inactive) | 37.9 µM (inactive) | 20 µM (inactive) | 18.5 µM (inactive) | 19.9 µM (inactive) | 27.5 µM (inactive) | – | 20.6 µM (inactive) | 16.9 µM (inactive) | 35.2 µM (inactive) | 15.3 µM (inactive) | 17.3 µM (inactive) | 34.6 µM (inactive) | 16.5 µM (inactive) | 44.9 µM (inactive) | 32.8 µM (inactive) | 28.1 µM (inactive) | 20.2 µM (inactive) | > 10 µM (inactive) | 28.1 µM (inactive)
COC(=O)[C@@H](COC(=O)/C=C/c1ccc(OC(C)=O)c(OC(C)=O)c1)NC(=O)/C=C/c1ccc(OC(C)=O)c(OC(C)=O)c1 | 18.3 µM (inactive) | – | 60.8 µM (inactive) | 28.1 µM (inactive) | 18 µM (inactive) | 51.8 µM (inactive) | 25.1 µM (inactive) | 25.6 µM (inactive) | 16 µM (inactive) | 22.5 µM (inactive) | 11.1 µM (inactive) | 32.4 µM (inactive) | 29.9 µM (inactive) | 19.6 µM (inactive) | 23.1 µM (inactive) | 38.5 µM (inactive) | 13.4 µM (inactive) | 21.7 µM (inactive) | 15.3 µM (inactive) | 6.52 µM (inactive)
O=C(O)CCC(C(=O)O)N1C(=O)c2ccccc2C1=O (configuration not stated) | > 100 µM (inactive) | > 100 µM (inactive) | > 100 µM (inactive) | > 100 µM (inactive) | > 100 µM (inactive) | > 100 µM (inactive) | > 100 µM (inactive) | > 100 µM (inactive) | > 100 µM (inactive) | > 100 µM (inactive) | > 100 µM (inactive) | > 100 µM (inactive) | > 100 µM (inactive) | > 100 µM (inactive) | > 100 µM (inactive) | – | > 100 µM (inactive) | > 100 µM (inactive) | > 100 µM (inactive) | > 100 µM (inactive)
COS(C)(=O)=O [METHANESULFONIC ACID METHYL ESTER] | > 2 µM (inactive) | > 2 µM (inactive) | > 2 µM (inactive) | > 2 µM (inactive) | > 2 µM (inactive) | > 2 µM (inactive) | > 2 µM (inactive) | > 2 µM (inactive) | > 2 µM (inactive) | > 2 µM (inactive) | > 2 µM (inactive) | > 2 µM (inactive) | > 2 µM (inactive) | > 2 µM (inactive) | > 2 µM (inactive) | > 2 µM (inactive) | – | > 2 µM (inactive) | > 2 µM (inactive) | > 2 µM (inactive)
CCOC(=O)c1cc2c([nH]1)c(OC(C)=O)cc1c2ccn1Cc1ccccc1 | > 100 µM (inactive) | – | > 100 µM (inactive) | > 100 µM (inactive) | > 100 µM (inactive) | > 100 µM (inactive) | > 100 µM (inactive) | > 100 µM (inactive) | > 100 µM (inactive) | > 100 µM (inactive) | > 100 µM (inactive) | > 100 µM (inactive) | > 100 µM (inactive) | > 100 µM (inactive) | > 100 µM (inactive) | > 100 µM (inactive) | > 100 µM (inactive) | > 100 µM (inactive) | > 100 µM (inactive) | > 100 µM (inactive)
